Nine compounds from PubChem BioAssay (NCI) can be followed below.

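Exposure lasted 48 hours, with cells grown in 96-well plates and compounds tested at five concentrations. TGI is the concentration that stops growth completely.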

Some test systems named below: SK-MEL-2 melanoma; RXF 393 renal; DU-145 prostate; KM12 colon; HL-60(TB) leukemia; NCI-H226 lung; EKVX NSCLC; NCI-H460 lung; RPMI-8226 leukemia; SF-268 CNS; MDA-N; UO-31 renal.
Experiment in all cases: growth of human tumour cells (NCI), 48 h

As to `CC(=O)C1=CC=C/C1=N\Nc1ccccc1`, the TGI in the experiment with SK-MEL-2 melanoma was determined as 27.7 µM; in the experiment on RXF 393 renal, 34.5 µM; in the experiment with DU-145 prostate, 28.2 µM; in the experiment on KM12 colon, 15.5 µM; with HL-60(TB) leukemia, 5.5 µM; in the experiment with NCI-H226 lung, 39.8 µM. Also, the TGI came to 23 µM in the experiment on EKVX NSCLC; 38.7 µM in the experiment with NCI-H460 lung; 7.75 µM with RPMI-8226 leukemia; 23.8 µM with SF-268 CNS; 19.2 µM with MDA-N; 25.8 µM with UO-31 renal.

Consider `CCOC(=O)C1(C(=O)OCC)C[C@H]2CON=C2[C@@H]1c1ccc(C(F)(F)F)cc1`, for which the TGI in the experiment on SK-MEL-2 melanoma, with RXF 393 renal, in the experiment on DU-145 prostate, in the experiment with KM12 colon, in the experiment on HL-60(TB) leukemia and in the experiment with NCI-H226 lung was more than 100 µM each time. Also, the TGI in the experiment on EKVX NSCLC is 96.6 µM; in the experiment with NCI-H460 lung, more than 100 µM; with RPMI-8226 leukemia it was more than 100 µM; with SF-268 CNS it was more than 100 µM; with MDA-N, more than 100 µM; in the experiment on UO-31 renal it was 27.5 µM.

With `OC1(c2ccc(Cl)cc2)c2ccccc2C2=Nc3ccccc3CN21` (stereo not drawn), the TGI in the experiment on SK-MEL-2 melanoma was more than 89.6 µM; in the experiment with RXF 393 renal, 55.4 µM; in the experiment on DU-145 prostate it was more than 100 µM; in the experiment with KM12 colon, more than 75.4 µM; with HL-60(TB) leukemia it was more than 75.5 µM; with NCI-H226 lung it was more than 71.9 µM. Moreover, the TGI is more than 81.6 µM with EKVX NSCLC; more than 100 µM with NCI-H460 lung; more than 100 µM in the experiment on RPMI-8226 leukemia; more than 100 µM with SF-268 CNS; more than 100 µM with MDA-N; more than 100 µM in the experiment with UO-31 renal.

Take `c1ccc(COc2nc3ccc(C45CC6CC(CC(C6)C4)C5)cc3[nH]2)cc1`: the TGI is 52.6 µM in the experiment on SK-MEL-2 melanoma; 55.8 µM in the experiment with RXF 393 renal; more than 100 µM in the experiment with DU-145 prostate; more than 100 µM in the experiment on KM12 colon; 43.7 µM in the experiment on HL-60(TB) leukemia; 46.2 µM in the experiment with NCI-H226 lung. In addition, the TGI in the experiment with EKVX NSCLC was more than 100 µM; with NCI-H460 lung, more than 71.3 µM; in the experiment with RPMI-8226 leukemia it was 30.9 µM; with SF-268 CNS, more than 100 µM; with MDA-N, 97 µM; in the experiment on UO-31 renal, more than 64.7 µM.

For `CCc1nnc2sc(-c3ccc(-c4ccc(Cl)cc4Cl)o3)nn12`, the TGI with SK-MEL-2 melanoma is more than 100 µM; with RXF 393 renal, 22.3 µM; in the experiment with DU-145 prostate it was more than 100 µM; in the experiment with KM12 colon, more than 100 µM; in the experiment on HL-60(TB) leukemia, more than 100 µM; in the experiment with NCI-H226 lung it was more than 100 µM. The TGI in the experiment with EKVX NSCLC, in the experiment on NCI-H460 lung, with RPMI-8226 leukemia, with SF-268 CNS, in the experiment on MDA-N and with UO-31 renal was more than 100 µM in each case.

Turning to `C(=N\NC1=NCCCN1)/c1ccc(-c2cn3cc(/C=N/NC4=NCCCN4)ccc3n2)cc1`, the TGI is more than 100 µM in the experiment on SK-MEL-2 melanoma; more than 100 µM with RXF 393 renal; more than 100 µM in the experiment with DU-145 prostate; more than 100 µM with KM12 colon; more than 58.1 µM with HL-60(TB) leukemia; more than 100 µM in the experiment on NCI-H226 lung. For the same compound, the TGI is more than 100 µM with EKVX NSCLC; more than 100 µM with NCI-H460 lung; more than 88.6 µM in the experiment with RPMI-8226 leukemia; more than 100 µM in the experiment with SF-268 CNS; more than 100 µM in the experiment on MDA-N; more than 100 µM in the experiment with UO-31 renal.

Consider `Cc1ccc(Nc2ncnc3sc(SCc4ccccc4)nc23)cc1`, for which the TGI with SK-MEL-2 melanoma, with RXF 393 renal, with DU-145 prostate, in the experiment with KM12 colon, in the experiment on HL-60(TB) leukemia and in the experiment with NCI-H226 lung was more than 100 µM throughout. In addition, the TGI in the experiment on EKVX NSCLC, with NCI-H460 lung, in the experiment with RPMI-8226 leukemia, in the experiment on SF-268 CNS, in the experiment with MDA-N and with UO-31 renal was more than 100 µM each time.

For the compound `C=C(C)C1CC2=C(C(=O)OC)C=C(O2)C(C(=C)C)[C@@H]2OC(=O)/C(=C\C1O)[C@H]2N(C)C` (stereo partly drawn), the TGI with SK-MEL-2 melanoma is 26.7 µM; with RXF 393 renal, 15.7 µM; in the experiment on DU-145 prostate it was 24.8 µM; in the experiment on KM12 colon, 28 µM; in the experiment with HL-60(TB) leukemia, more than 24.2 µM; in the experiment with NCI-H226 lung, 21.7 µM. Also, the TGI came to 29 µM in the experiment on EKVX NSCLC; 31.4 µM in the experiment with NCI-H460 lung; 14.9 µM with RPMI-8226 leukemia; 32.9 µM in the experiment with SF-268 CNS; 25.8 µM in the experiment with MDA-N; 26.4 µM in the experiment with UO-31 renal.

Consider `Fc1ccc(C(=NCc2ccccc2)N2CCOCC2)cc1`, for which the TGI with SK-MEL-2 melanoma, with RXF 393 renal, in the experiment on DU-145 prostate, with KM12 colon, with HL-60(TB) leukemia and in the experiment with NCI-H226 lung was more than 100 µM throughout. Also, the TGI in the experiment with EKVX NSCLC, in the experiment with NCI-H460 lung, in the experiment with RPMI-8226 leukemia, in the experiment with SF-268 CNS, in the experiment with MDA-N and in the experiment with UO-31 renal was more than 100 µM in each case.
